Values of other authors, collected in patent publication US7582314B2, “Compositions and methods for the management of hyperproliferative dermatological conditions” (Sami Labs Ltd., priority 2003, dated 2009).
Where two headings read alike, the source gives them in different places.

Experiments:
[1] = system: damage to the skin induced by UV radiation; conditions: topical; experimental animals
plaque psoriasis = conditions: oral supplementation; psoriasis patients
[2] = system: damage to the skin induced by UV radiation; conditions: topical; human subjects

## C[Se]CC[C@H](N)C(=O)O [selenomethionine]
[1]
  degree of damage to the skin induced by UV radiation: reduces
Plaque psoriasis
  efficacy as adjuvant treatment in plaque psoriasis: ineffective
[2]
  degree of damage to the skin induced by UV radiation: reduces
